The record followed here is patent publication US8969395B2, “Triterpenoid derivatives useful as antiproliferative agents” (Universidade de Coimbra, priority 2009, dated 2015).

Assay [1] relates to HeLa (human cervical adenocarcinoma). Briefly: Cytotoxic activity, MTT assay, HeLa. Type of assay: cell-based. Conditions: 72 h, mean ±SD. As to the method:
(§1) The cytotoxic of compounds of formulas (I) and (II) 14-50 was assessed towards human cancer (HepG2, HeLa and Jurkat) cell lines (Table 3 below). Compounds presented on Table 4 were also tested against a non-tumoral liver cell line (Chang liver). The cell viability of HeLa, HepG2 and Chang liver cells was determined by the MTT assay. Briefly, exponentially growing cells were plated in 96-well plates at a density of 1×10^3, 8×10^3 and 5×10^3 cells/well respectively and incubated for 24 h before treatment. The grown medium was replaced with one contained the tested compounds dissolved in DMSO (final DMSO concentration <0.1%) at different concentrations, in triplicate wells, and cells were incubated for 72 h. After incubation with the compounds, the medium was removed and MTT solution (0.5 mg/ml, 100 μl) was added to each well and the plates were incubated again for 1 h. DMSO (100 μl) was then added to dissolve the formazan crystals and the plates were immediately read at 550 nm on an ELISA plate reader (Tecan Sunrise MR20-301, TECAN, Austria). For the Jurkat cells, the cell viability was determined by the XTT assay. Briefly, exponentially growing cells were plated in 96-well plates at a density of 5.5×10^3 cells/well, treated with different concentrations of compounds in triplicate and incubated for 72 h. After incubation with the compounds the XTT labeling mixture (100 μl) were added to each of the wells and after a 4 h incubation period the plates were read at 450 nm on an ELISA plate reader. […] Known for its cytotoxic activity, betulinic acid 2 was used as a positive control in this experimentation.
A general note: Formazan colour is commonly taken as a measure of viable cells.

Assay [2] has as its system HeLa cells. Briefly: Cell cycle analysis by flow cytometry (FACS, PI), HeLa. Conditions: compound at its IC50, 72 h. The assay is classed as cell-based, human. The procedure:
(§2) The effects on the cell cycle of some of these compounds were assessed through flow cytometry by using a fluorescence-activated cell sorter (FACS) (Table 5 below). For this assay 2.3×10^5 HepG2 cells/well, 2.9×10^4 HeLa cells/well, 1.6×10^5 Jurkat cells/well and 1.4×10^5 Chang liver cells/well were plated in 6 well plates with 2 ml of medium. The number of cells was determined by the relationship number of cells/area wells, considering the number of cells that were cultured in 96-well plates. […] Chang liver cells were incubated with compounds 20, […] at concentrations corresponding to the IC80 determined for HepG2 at 72 h. Following 72 h. of incubation, cells were harvested by mild trypsinization, collected by centrifugation and stained in ice-cold Tris-buffered saline (TBS), containing 1 mg/ml PI, 10 mg/ml RNAse free of DNAase and 0.1% Igepal CA-630 for 1 h at 4° C. FACS analysis was carried out at 488 nm in an Epics XL flow cytometer (Coulter Corporation, Hialeah, Fla.). Data from 8×10^3 cells were collected and analyzed using Multicycle program (Phoenix Flow Systems, San Diego, Calif.). All experiments were performed three times with three replicates per experiment. […] To explore the selectivity of the effect on tumor cells, we also tested compounds 20, 44 and 46 in a non-malignant cell line. Chang liver cells were treated with the compounds at the IC80 values determined for HepG2 after 72 h of incubation and no effect was observed, indicating a selective effect of these agents (Table 5 below).
On the technique in general: In flow cytometry, cells or beads pass a laser one at a time.

Assay [3] concerns Jurkat (human leukemia). Kind of assay: Cytotoxic activity, XTT assay, Jurkat. Type of assay: cell-based. Conditions: 72 h, mean ±SD. As to the method:
as §1, with “experimentation. […] All the IC50 results represent an average of a minimum of three experiments and were expressed as means±standard deviation (SD).” for “experimentation.”

Assay [4] concerns HepG2 (human hepatocellular carcinoma). Kind of assay: Cytotoxic activity, MTT assay, HepG2. Type of assay: cell-based. Conditions: mean ±SD. The procedure: as §1, with “experimentation. […] All the IC50 results represent an average of a minimum of three experiments and were expressed as means±standard deviation (SD).” for “experimentation.”
For assay [5], the system named is Jurkat cells. Briefly: Cell cycle analysis by flow cytometry (FACS, PI), Jurkat. The assay is classed as cell-based, human. Conditions: compound at its IC50, 72 h. The procedure:
as §2

Assay [6] relates to HepG2 cells. Kind of assay: Cell cycle analysis by flow cytometry (FACS, PI), HepG2. Conditions: HepG2, compound at its IC50, 72 h. The assay is classed as cell-based, human. As to the method: as §2
The subject of assay [7] is Chang liver (human normal liver cells). Kind of assay: Cytotoxic activity against non-tumoral cell line, MTT assay. Type of assay: cell-based. Conditions: 72 h, mean ±SD. The procedure:
as §1, with “experimentation. […] All the IC50 results represent an average of a minimum of three experiments and were expressed as means±standard deviation (SD).” for “experimentation.”

Assay [8] relates to PC-3 (human prostate adenocarcinoma). Kind of assay: Cytotoxic activity, PC-3. Type of assay: cell-based. Conditions: mean ±SD. The procedure:
(§3) Compounds presented in Table 6 were also tested in the following cell lines: PC-3 (human prostate adenocarcinoma), LNCaP (human prostate adenocarcinoma), LAPC4 (human prostate adenocarcinoma) and HT-29 (human colon adenocarcinoma).

Assay [9] deals with LAPC4 (human prostate adenocarcinoma). Briefly: Cytotoxic activity, LAPC4. Conditions: mean ±SD. The assay is classed as cell-based. The procedure:
as §3

Assay [10] deals with LNCaP (human prostate adenocarcinoma). Briefly: Cytotoxic activity, LNCaP. Type of assay: cell-based. Conditions: mean ±SD. As to the method: as §3
Assay [11] has as its system HT-29 (human colon adenocarcinoma). Briefly: Cytotoxic activity, HT-29. Conditions: mean ±SD. Type of assay: cell-based. As to the method:
as §3

Structures are written as SMILES.

For orientation: IC50 means the concentration that inhibits the measured activity by half. Read a high IC50 as lower potency.

Consider `C=C(C)[C@@H]1CC[C@]2(C(=O)O)CC[C@]3(C)[C@H](CC[C@@H]4[C@@]5(C)CC[C@H](O)C(C)(C)[C@@H]5CC[C@]43C)[C@@H]12` [Compound 2, Betulinic acid, reference compound], for which the IC50 in assay [1] (Homo sapiens, HeLa) worked out at 26 ± 2.1 µM; in assay [3] (Homo sapiens, Jurkat) it was 26.9 ± 2.2 µM; in assay [4] (Homo sapiens, HepG2, 72 h), 36.4 ± 1.5 µM; in [7] (Homo sapiens, Chang liver), 92.3 ± 4.1 µM. Moreover, the “Phase of cell cycle (% of cells) G0/G1” value is 66.8 ± 1.2 % of cells in [2], 56.8 ± 5.0 % of cells in assay [5] and 59.7 ± 2.0 % of cells in [6]. Moreover, the “Phase of cell cycle (% of cells) G2/M” value is 11.7 ± 1.1 % of cells in assay [2], 24.1 ± 4.7 % of cells in assay [5] and 14.3 ± 0.9 % of cells in assay [6]. Moreover, the “Phase of cell cycle (% of cells) S” value in assay [2] is recorded as 21.4 ± 0.9 % of cells; in assay [5] it was 18.9 ± 1.2 % of cells; in assay [6], 25.9 ± 1.3 % of cells.
For the molecule `C=C(C)[C@@H]1CC[C@]2(COC(=O)n3ccnc3)CC[C@]3(C)[C@H](CC[C@@H]4[C@@]5(C)CC[C@H](O)C(C)(C)[C@@H]5CC[C@]43C)[C@@H]12` [Compound 14, 3β-hydroxy-lup-20(29)-en-28-yl-1H-imidazole-1-carboxylate], the IC50 came to 7.6 ± 0.6 µM in assay [1]; 21 ± 2 µM in assay [8]; 10.3 ± 1.6 µM in [9]; 16.3 ± 1.2 µM in assay [3]; 4.2 ± 0.3 µM in assay [4] (72 h); 79.7 ± 6.4 µM in assay [7]. Also, the IC50 in [10] came to 13 ± 1.5 µM.
For the molecule `C=C(C)[C@@H]1CC[C@]2(COC(=O)n3ccnc3)CC[C@]3(C)[C@H](CC[C@@H]4[C@@]5(C)CC[C@H](OC(=O)n6ccnc6)C(C)(C)[C@@H]5CC[C@]43C)[C@@H]12` [Compound 17, Lup-20(29)-en-3β,28-di-yl-(1H-imidazole-1-carboxylate)], the half-inhibitory concentration (IC50) in [1] is over 30 µM; in assay [8], over 30 µM; in assay [9], 12.9 ± 1.1 µM; in [3], over 30 µM; in [4] (72 h), over 30 µM; in [10] it was 14.4 ± 1.3 µM.
Regarding `C=C(C)[C@@H]1CC[C@]2(C(=O)O)CC[C@]3(C)[C@H](CC[C@@H]4[C@@]5(C)CC[C@H](OC(=O)n6ccnc6)C(C)(C)[C@@H]5CC[C@]43C)[C@@H]12` [Compound 28, 3β-(1H-imidazole-1-carbonyloxy)-lup-20(29)-en-28-oic acid], the IC50 came to 5.1 ± 0.3 µM in assay [1]; 5.6 ± 0.4 µM in [8]; 11.8 ± 0.9 µM in assay [9]; 5.2 ± 0.7 µM in assay [3]; 6.2 ± 0.2 µM in assay [4] (72 h); 56.8 ± 2.2 µM in assay [7]. This molecule returned an IC50 in assay [10] of 15.6 ± 0.8 µM.
As for `C=C(C)[C@@H]1CC[C@]2(C(=O)n3ccnc3)CC[C@]3(C)[C@H](CC[C@@H]4[C@@]5(C)CC[C@H](OC(=O)n6ccnc6)C(C)(C)[C@@H]5CC[C@]43C)[C@@H]12` [Compound 30, 28-(1H-imidazole-1-yl)-28-oxo-lup-20(29)-en-3β-yl-1H-imidazole-1-carboxylate], the IC50 in assay [1] was 8.2 ± 0.4 µM; in [8] it was 1.1 ± 0.1 µM; in assay [9] it was 4.4 ± 0.2 µM; in assay [3] it was 6 ± 1.2 µM; in assay [4] (72 h), 2.9 ± 0.4 µM; in assay [7] it was 150 ± 13.6 µM. In [10], this molecule gave an IC50 of 1.9 ± 0.2 µM.
Turning to `C=C(C)[C@@H]1CC[C@]2(C(=O)n3ccnc3C)CC[C@]3(C)[C@H](CC[C@@H]4[C@@]5(C)CC[C@H](OC(=O)n6ccnc6C)C(C)(C)[C@@H]5CC[C@]43C)[C@@H]12` [Compound 31, 28-(2′-methyl-1H-imidazole-1-yl)-28-oxo-lup-20(29)-en-3β-yl-2′-methyl-1H-imidazole-1-carboxylate], the values for the IC50 in [11], in assay [3] and in assay [4] (72 h) were 7.8 ± 1.6 µM, 20.1 ± 3.2 µM and 11.6 ± 0.8 µM, respectively.
Take `C=C(COC)[C@@H]1CC[C@]2(COC(=O)n3ccnc3)CC[C@]3(C)[C@H](CC[C@@H]4[C@@]5(C)CC[C@H](O)C(C)(C)[C@@H]5CC[C@]43C)[C@@H]12` [Compound 35, 3β-hydroxy-30-methoxylup-20(29)-en-28-yl-1H-imidazole-1-carboxylate]: the IC50 in [1] was determined as 9.8 ± 0.6 µM; in assay [8], 11.4 ± 1.3 µM; in assay [9] it was 9.5 ± 0.7 µM; in assay [3], 12.2 ± 1.3 µM; in [4] (72 h) it was 8.3 ± 0.4 µM; in assay [7] it was 96.4 ± 7.5 µM. It took 7.7 ± 0.9 µM to reach half-maximal inhibition in assay [10] (IC50).
As for `C=C(COC)[C@@H]1CC[C@]2(COC(=O)n3ccnc3)CC[C@]3(C)[C@H](CC[C@@H]4[C@@]5(C)CC[C@H](OC(=O)n6ccnc6)C(C)(C)[C@@H]5CC[C@]43C)[C@@H]12` [Compound 38, 30-methoxylup-20(29)-en-3β,28-di-yl-(1H-imidazole-1-carboxylate)], the IC50 in assay [1] is over 30 µM; in assay [8], 2 ± 0.3 µM; in assay [9], 7.3 ± 1.1 µM; in assay [3], 16.2 ± 1 µM; in [4] (72 h), 19.6 ± 1.6 µM; in assay [7], 170 ± 17.7 µM. The IC50 in assay [10] was found to be 8.1 ± 1 µM.
For the molecule `C[C@@H](C=O)[C@@H]1CC[C@]2(COC(=O)n3ccnc3)CC[C@]3(C)[C@H](CC[C@@H]4[C@@]5(C)CC[C@H](O)C(C)(C)[C@@H]5CC[C@]43C)[C@@H]12` [Compound 41, 3β-hydroxy-(20R)-lupan-29-oxo-28-yl-1H-imidazole-1-carboxylate], the IC50 was 11.1 ± 1.4 µM in assay [1]; 16.7 ± 2.4 µM in assay [8]; over 30 µM in assay [9]; 13.7 ± 1.4 µM in [3]; 11.5 ± 1.1 µM in [4] (72 h); 146 ± 4.5 µM in assay [7]. The molecule further yielded an IC50 in assay [10] of 15.6 ± 2.4 µM.
As to `C[C@@H](C=O)[C@@H]1CC[C@]2(COC(=O)n3ccnc3)CC[C@]3(C)[C@H](CC[C@@H]4[C@@]5(C)CC[C@H](OC(=O)n6ccnc6)C(C)(C)[C@@H]5CC[C@]43C)[C@@H]12` [Compound 43, (20R)-lupane-29-oxo-3β,28-di-yl-(1H-imidazole-1-carboxylate)], the IC50 is 19.2 ± 1.5 µM in assay [1]; 6.2 ± 0.7 µM in [8]; 7.9 ± 1.3 µM in assay [9]; 20.2 ± 1.6 µM in assay [3]; 26.1 ± 1.1 µM in assay [4] (72 h); 156 ± 12.5 µM in assay [7]. The molecule also yielded an IC50 in assay [10] of 6.9 ± 0.3 µM.
